These results are taken from paper PMC4774911, “Biochemical Screening of Five Protein Kinases from Plasmodium falciparum against 14,000 Cell-Active Compounds” (PLoS ONE, 2016).

Several values for one entry are separate records, joined by “and”; a condition that tells them apart may be missing. Equal entries are not always repeated.

Targets include CDK9 (Homo sapiens, UniProt P50750); CRKRS (Homo sapiens, UniProt Q9NYV4); GSK3A (Homo sapiens, UniProt P49840); GSK3B (Homo sapiens, UniProt P49841); OXSR1 (Homo sapiens, UniProt O95747); PIP5K3 (Homo sapiens, UniProt Q9Y2I7); PRKCD (Homo sapiens, UniProt Q05655); SIK2 (Homo sapiens, UniProt Q9H0K1); STK39 (Homo sapiens, UniProt Q9UEW8).
What all share (assay): biochemical
The target of a further assay is T1, NEK2 (Homo sapiens, UniProt P51955).
T1 sequence (P51955 1-445): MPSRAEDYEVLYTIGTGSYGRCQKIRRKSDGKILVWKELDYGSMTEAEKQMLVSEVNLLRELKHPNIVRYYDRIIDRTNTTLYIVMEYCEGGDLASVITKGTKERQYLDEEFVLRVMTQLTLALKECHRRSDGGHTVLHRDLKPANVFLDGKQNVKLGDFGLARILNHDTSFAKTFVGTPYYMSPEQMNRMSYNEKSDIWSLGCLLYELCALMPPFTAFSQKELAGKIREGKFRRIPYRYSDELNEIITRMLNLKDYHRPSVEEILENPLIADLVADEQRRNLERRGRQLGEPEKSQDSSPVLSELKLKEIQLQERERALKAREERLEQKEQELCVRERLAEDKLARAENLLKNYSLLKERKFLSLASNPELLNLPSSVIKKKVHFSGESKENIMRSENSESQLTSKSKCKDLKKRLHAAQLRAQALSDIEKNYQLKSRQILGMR

In the next assay the target is T2, NEK9 (Homo sapiens, UniProt Q8TD19).
T2 sequence (Q8TD19 1-979): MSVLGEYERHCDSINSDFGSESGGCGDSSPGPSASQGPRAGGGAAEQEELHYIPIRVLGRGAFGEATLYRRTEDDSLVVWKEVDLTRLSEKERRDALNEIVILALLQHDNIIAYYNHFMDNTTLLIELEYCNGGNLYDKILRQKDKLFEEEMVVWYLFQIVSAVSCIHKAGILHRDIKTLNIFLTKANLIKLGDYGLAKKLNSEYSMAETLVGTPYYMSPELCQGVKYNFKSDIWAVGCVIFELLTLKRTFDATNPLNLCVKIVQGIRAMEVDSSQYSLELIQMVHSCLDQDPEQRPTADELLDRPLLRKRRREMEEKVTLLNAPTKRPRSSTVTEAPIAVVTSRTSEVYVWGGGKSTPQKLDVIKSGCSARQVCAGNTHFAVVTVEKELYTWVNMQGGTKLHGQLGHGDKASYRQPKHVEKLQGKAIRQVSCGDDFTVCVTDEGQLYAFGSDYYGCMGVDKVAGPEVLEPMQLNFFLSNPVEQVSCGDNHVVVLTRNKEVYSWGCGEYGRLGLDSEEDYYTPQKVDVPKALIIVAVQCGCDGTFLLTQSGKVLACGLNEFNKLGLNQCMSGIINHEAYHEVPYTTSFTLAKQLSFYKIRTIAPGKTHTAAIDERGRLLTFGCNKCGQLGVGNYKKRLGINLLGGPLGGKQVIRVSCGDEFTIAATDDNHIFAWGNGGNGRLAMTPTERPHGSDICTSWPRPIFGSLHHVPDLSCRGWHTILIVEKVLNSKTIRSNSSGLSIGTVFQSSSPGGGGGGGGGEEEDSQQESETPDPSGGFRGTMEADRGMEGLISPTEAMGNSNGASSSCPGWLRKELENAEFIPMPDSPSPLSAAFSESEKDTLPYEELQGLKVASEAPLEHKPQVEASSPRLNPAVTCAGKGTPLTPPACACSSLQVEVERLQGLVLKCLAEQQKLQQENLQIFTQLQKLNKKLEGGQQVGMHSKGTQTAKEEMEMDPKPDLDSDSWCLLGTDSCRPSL

Another assay has as its target T3, PDPK1 (Homo sapiens, UniProt O15530).
T3 sequence (O15530 1-556): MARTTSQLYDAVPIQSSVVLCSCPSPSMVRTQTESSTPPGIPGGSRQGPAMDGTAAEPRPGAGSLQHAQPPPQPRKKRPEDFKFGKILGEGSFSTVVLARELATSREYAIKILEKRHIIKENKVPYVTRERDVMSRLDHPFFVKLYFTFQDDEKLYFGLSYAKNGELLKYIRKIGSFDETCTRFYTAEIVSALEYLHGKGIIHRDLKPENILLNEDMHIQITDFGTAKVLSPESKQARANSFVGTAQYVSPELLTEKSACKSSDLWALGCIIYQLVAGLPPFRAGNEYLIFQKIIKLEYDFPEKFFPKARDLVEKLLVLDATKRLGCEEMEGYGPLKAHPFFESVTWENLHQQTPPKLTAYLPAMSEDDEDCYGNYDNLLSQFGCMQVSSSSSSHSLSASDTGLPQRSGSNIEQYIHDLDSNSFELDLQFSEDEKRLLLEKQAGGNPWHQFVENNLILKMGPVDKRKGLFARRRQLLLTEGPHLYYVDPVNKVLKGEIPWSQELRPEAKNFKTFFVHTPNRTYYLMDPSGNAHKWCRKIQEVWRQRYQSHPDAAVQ

CRKRS, sequence (Q9NYV4 whole entry): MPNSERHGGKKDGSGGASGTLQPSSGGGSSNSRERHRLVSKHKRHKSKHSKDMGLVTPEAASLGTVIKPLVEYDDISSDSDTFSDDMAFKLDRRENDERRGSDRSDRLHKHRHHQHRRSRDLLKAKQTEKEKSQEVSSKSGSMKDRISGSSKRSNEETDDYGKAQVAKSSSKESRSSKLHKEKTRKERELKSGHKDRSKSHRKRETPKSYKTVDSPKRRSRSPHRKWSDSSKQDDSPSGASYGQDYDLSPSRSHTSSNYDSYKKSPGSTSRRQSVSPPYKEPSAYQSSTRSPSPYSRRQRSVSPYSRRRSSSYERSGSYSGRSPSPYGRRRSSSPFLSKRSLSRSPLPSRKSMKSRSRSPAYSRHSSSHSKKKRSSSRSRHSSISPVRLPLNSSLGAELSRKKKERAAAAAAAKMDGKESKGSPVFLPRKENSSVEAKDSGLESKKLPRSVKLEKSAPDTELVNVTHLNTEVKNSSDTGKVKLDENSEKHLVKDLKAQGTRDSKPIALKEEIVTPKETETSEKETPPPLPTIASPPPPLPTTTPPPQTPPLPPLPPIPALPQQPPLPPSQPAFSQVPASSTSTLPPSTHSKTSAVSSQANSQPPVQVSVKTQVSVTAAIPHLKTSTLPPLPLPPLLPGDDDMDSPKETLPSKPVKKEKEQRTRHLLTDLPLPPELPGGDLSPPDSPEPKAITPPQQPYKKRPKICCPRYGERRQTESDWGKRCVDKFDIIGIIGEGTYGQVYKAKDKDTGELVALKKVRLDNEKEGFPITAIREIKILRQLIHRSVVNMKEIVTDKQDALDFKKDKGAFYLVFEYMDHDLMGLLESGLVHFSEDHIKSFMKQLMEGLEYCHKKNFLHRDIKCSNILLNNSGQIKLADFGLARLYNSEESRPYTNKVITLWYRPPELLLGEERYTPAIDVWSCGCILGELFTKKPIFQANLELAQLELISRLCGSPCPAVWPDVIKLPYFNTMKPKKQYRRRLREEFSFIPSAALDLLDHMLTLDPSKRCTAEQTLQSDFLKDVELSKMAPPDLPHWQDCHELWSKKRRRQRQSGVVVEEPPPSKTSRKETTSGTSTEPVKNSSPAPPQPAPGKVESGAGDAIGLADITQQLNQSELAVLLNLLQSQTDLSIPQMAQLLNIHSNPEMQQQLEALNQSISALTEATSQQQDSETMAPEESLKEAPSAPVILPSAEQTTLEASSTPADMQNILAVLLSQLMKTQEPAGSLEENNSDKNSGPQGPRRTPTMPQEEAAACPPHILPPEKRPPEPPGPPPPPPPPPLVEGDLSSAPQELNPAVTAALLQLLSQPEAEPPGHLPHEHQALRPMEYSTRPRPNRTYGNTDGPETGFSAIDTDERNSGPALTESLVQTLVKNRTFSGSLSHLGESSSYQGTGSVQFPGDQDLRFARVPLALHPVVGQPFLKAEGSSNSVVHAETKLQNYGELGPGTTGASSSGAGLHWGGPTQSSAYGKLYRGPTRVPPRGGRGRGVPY
CDK9, sequence (P50750 whole entry): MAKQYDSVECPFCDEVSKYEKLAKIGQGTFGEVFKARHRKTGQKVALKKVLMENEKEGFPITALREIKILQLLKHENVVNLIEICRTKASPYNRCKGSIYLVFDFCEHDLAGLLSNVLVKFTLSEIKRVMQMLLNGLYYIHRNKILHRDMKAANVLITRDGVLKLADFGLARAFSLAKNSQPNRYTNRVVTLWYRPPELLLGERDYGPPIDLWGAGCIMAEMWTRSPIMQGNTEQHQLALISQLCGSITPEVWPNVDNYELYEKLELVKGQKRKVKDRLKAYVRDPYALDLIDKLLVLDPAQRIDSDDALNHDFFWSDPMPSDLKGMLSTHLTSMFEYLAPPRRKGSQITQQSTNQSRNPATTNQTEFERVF
SIK2, sequence (Q9H0K1 whole entry): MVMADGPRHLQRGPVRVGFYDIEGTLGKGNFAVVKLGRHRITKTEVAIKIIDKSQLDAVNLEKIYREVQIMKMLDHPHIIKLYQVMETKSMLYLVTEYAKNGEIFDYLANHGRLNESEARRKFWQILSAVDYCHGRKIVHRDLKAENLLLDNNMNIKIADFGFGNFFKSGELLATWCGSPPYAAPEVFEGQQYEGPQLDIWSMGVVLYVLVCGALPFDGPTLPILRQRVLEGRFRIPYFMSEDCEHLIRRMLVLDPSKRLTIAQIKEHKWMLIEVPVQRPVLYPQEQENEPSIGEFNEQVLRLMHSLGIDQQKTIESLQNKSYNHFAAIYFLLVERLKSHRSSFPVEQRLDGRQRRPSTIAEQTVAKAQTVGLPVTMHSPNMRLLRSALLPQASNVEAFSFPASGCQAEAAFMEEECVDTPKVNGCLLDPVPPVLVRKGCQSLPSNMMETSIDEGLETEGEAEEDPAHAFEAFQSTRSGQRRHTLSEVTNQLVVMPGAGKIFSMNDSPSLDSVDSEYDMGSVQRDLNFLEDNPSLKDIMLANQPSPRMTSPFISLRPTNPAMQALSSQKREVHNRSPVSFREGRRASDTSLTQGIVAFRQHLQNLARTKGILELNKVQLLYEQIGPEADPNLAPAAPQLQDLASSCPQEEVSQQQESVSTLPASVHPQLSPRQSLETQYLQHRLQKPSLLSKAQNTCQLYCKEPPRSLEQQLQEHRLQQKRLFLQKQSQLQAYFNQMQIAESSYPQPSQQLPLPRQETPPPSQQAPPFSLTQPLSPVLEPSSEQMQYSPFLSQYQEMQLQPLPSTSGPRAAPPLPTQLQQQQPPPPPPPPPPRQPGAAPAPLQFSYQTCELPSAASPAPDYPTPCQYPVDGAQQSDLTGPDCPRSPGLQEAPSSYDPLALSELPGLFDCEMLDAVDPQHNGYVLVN
PRKCD, sequence (Q05655 whole entry): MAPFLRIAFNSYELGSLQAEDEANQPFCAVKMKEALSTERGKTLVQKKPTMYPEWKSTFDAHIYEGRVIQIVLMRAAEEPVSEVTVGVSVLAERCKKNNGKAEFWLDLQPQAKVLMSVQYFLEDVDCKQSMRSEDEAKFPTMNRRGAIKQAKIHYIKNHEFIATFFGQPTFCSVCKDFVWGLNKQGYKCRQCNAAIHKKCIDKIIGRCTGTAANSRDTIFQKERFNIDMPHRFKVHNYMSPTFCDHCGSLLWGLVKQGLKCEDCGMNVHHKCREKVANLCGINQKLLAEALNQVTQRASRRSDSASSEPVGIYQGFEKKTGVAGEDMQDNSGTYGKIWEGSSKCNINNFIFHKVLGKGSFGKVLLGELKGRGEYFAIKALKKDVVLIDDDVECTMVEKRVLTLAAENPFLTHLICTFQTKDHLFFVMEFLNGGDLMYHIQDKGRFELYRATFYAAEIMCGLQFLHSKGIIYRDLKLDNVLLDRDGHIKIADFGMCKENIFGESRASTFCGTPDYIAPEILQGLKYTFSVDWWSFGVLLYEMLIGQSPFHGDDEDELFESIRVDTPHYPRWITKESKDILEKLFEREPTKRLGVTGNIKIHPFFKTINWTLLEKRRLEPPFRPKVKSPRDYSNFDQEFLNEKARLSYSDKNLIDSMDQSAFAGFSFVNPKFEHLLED
GSK3A, sequence (P49840 whole entry): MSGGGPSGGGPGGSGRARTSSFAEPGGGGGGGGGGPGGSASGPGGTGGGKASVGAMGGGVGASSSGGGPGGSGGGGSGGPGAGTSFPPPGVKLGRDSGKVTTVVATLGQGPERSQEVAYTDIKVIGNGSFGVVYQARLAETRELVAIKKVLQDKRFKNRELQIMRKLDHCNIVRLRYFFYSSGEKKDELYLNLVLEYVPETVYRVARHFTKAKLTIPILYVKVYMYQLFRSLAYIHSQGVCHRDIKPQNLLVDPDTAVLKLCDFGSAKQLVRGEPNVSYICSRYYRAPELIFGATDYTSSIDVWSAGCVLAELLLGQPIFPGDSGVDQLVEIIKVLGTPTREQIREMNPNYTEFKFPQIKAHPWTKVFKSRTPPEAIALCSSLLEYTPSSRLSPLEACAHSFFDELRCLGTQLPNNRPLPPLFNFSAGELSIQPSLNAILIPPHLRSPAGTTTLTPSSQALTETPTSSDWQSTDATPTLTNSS
OXSR1, sequence (O95747 whole entry): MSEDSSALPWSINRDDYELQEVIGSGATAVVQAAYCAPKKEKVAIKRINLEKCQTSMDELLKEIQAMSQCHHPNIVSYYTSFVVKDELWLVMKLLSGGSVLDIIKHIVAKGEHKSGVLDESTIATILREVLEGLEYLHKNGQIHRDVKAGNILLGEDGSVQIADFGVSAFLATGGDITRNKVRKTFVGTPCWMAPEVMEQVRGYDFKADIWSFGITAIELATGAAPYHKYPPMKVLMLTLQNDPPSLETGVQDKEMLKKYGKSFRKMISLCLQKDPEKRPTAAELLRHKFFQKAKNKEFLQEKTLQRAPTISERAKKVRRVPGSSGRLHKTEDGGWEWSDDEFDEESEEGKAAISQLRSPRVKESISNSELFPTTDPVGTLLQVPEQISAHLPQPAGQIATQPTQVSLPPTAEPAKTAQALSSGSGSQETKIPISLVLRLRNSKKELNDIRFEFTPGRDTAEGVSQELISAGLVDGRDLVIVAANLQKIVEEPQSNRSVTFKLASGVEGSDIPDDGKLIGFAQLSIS
GSK3B, sequence (P49841 whole entry): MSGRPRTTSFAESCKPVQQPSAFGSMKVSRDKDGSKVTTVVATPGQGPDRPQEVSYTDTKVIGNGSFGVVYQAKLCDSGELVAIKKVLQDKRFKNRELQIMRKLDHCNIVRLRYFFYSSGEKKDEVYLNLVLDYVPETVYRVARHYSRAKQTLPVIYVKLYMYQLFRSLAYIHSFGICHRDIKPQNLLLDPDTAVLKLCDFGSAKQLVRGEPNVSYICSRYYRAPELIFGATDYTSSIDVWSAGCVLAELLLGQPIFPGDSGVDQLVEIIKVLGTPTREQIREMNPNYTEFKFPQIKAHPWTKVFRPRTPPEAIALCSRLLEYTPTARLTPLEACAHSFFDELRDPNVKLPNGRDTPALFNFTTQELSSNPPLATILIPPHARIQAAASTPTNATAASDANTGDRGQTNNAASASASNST

One may read the IC50 as the midpoint of a concentration-inhibition curve. Low readings indicate greater potency, high ones weaker potency. `CN1CCN(c2ccc(Nc3ncc(C#N)c(Nc4ccccc4C(N)=O)n3)cc2)CC1.Cl` [TCMDC-134116]: the IC50 at CDK9 was 1100 nM and 750 nM; on CRKRS it was 650 nM; against GSK3A, 1400 nM and 1100 nM; against GSK3B it was 2400 nM and 1500 nM; against NEK2, 570 nM and 250 nM; at NEK9, 770 nM and 580 nM. In addition, the IC50 is 81 nM and 130 nM on OXSR1; 890 nM and 740 nM against PDPK1; 1300 nM and 1500 nM against PIP5K3; 850 nM against PRKCD; ≤ 32 nM and 35 nM on SIK2; 67 nM on STK39.
As for `Cl.NCC1(c2nc(-c3ccc(Cl)c(O)c3)c(-c3ccncc3)[nH]2)CCCCC1` [TCMDC-141154], the IC50 at CDK9 is above 20000 nM; against CRKRS, above 20000 nM; against GSK3A, above 20000 nM; on GSK3B, 7700 nM; at NEK2 it was above 20000 nM; against NEK9, above 20000 nM. The half-maximal inhibitory concentration (IC50) is above 20000 nM on OXSR1; above 20000 nM at PDPK1; 1000 nM at PIP5K3; 1000 nM at PRKCD; 570 nM and 530 nM at SIK2; above 20000 nM against STK39.
Consider `CN(C)CC(O)COc1ccc(Nc2ncc([N+](=O)[O-])c(Nc3ccccc3O)n2)cc1.O=C(O)C(F)(F)F` (stereo not drawn) [TCMDC-141399], for which the IC50 is 5300 nM and 7300 nM on CDK9; 2100 nM against CRKRS; 6700 nM and 7400 nM at GSK3A; 8400 nM and 11000 nM on GSK3B; 6500 nM and 4200 nM on NEK2; above 20000 nM against NEK9. Also, the IC50 against OXSR1 is above 20000 nM; against PDPK1, above 20000 nM; at PIP5K3, 7500 nM and 5300 nM; on PRKCD, above 20000 nM; against SIK2 it was above 20000 nM; against STK39, 5500 nM.
